The results in this text go back to ChEMBL document CHEMBL5375996, “Discovery of Orally Available and Brain Penetrant AEP Inhibitors” (J Med Chem, 2023).

One data set in a line: in vitro. As to conditions: PAMPA.
Another data set is described as follows: physchem. Conditions: octanol/water.

`N#C[C@H](CC(N)=O)NC(=O)[C@@H]1CCCN1C(=O)Cc1ccccc1` returned a Papp in the data set “in vitro” of 2.7 ×10⁻⁶ cm/s. In the data set “physchem”, `NC(=O)CN(NC(=O)[C@@H]1CCCN1C(=O)C1(c2ccc(OC(F)(F)F)cc2)CC1)C(=O)CCl` registered a logD of 1.9.

Regarding `C#C[C@H](CC(N)=O)NC(=O)[C@@H]1CCCN1C(=O)[C@]1(c2ccc(OC(F)(F)F)cc2)C[C@@H](F)C1`, the logD in the data set “physchem” turned out to be 2.1.

In the data set “in vitro”, `C#C[C@H](CC(N)=O)NC(=O)[C@@H]1C[C@H](C)CN1C(=O)C1(c2ccc(OC(F)(F)F)cc2)CC1` yielded a Papp of 1.5 ×10⁻⁶ cm/s. In “physchem”, this compound came in with a log distribution coefficient (logD) of 2.3. `C#C[C@H](CC(N)=O)NC(=O)[C@@H]1CCCN1C(=O)[C@]1(c2ccc(OC(F)(F)F)cc2)C[C@H](F)C1` came in with a logD in “physchem” of 1.7. In the data set “in vitro”, `C#C[C@H](CC(N)=O)NC(=O)[C@@H]1C[C@@H](C)CN1C(=O)C1(c2ccc(OC(F)(F)F)cc2)CC1` had a Papp of 2.8 ×10⁻⁶ cm/s. Besides, the logD in the data set “physchem” stood at 2.2. On the same counts, the results for `N#C[C@H](CC(N)=O)NC(=O)[C@@H]1CCCN1C(=O)C1(c2ccc(F)cc2)CC1` are 2.9 ×10⁻⁶ cm/s and 0.5.

In general, Papp refers to the rate of passage across a membrane or cell layer, normalised by area and donor concentration. A higher Papp goes with fast passage. What is called logD is lipophilicity at a set pH, counting ionised and neutral species.
